Experimental findings from patent publication US20040023972A1, “Use of substituted imidazo[1,2-a]-pyridin-, -pyrimidin-and-pyrazin-3-yl-amine derivatives in the preparation of medicaments for inhibiting NOS” (Gruenenthal GmbH, priority 2000, published 2004) are described below.

For the first assay, the target named is T1, NO synthase (Rattus norvegicus, UniProt P29476).
T1 construct: the supernatant was then removed by decantation and frozen in portions at −80° C; from tissue; host or cells: rat cerebellum, 20,000 g supernatant of homogenate
As to the kind of experiment: HTS-NOS assay (NOS assay): conversion of radioactive arginine, cation-exchanger filter plate. Type of assay: biochemical. To be noted: 10 μM. The gist of the method:
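Percent inhibition was derived by comparing remaining radioactive arginine with compound-free controls. Arginine retained on phosphate cation-exchanger filters was counted after citrulline washout, following a 5-60 min room-temperature (25 °C) reaction of labelled arginine, NADPH-containing medium and rat cerebellar homogenate supernatant.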
As for `C#[N+]CCCCCCNc1c(C2CCCCC2)nc2cc(C)cc(C)n12` [Example 88, [6-(2-Cyclohexyl-5,7-dimethyl-imidazo[1,2-a]pyridin-3-ylamino)-hexyl]-methylidyne-ammonium], the “HTS-NOS assay: % inhibition (10 μM)” value came out at 57%.
Still for that read-out and setting: to `[C-]#[N+]CCCCCCNc1c(-c2ccccc2Br)nc2cc(C)cc(C)n12` [Example 92, {6-[2-(2-Bromophenyl)-5,7-dimethyl-imidazo[1,2-a]pyridin-3-ylamino]-hexyl}-methylidyne-ammonium] belongs 60%; to `[C-]#[N+]CCCCCCNc1c(-c2ccccc2C)nc2cc(C)ccn12` [Example 97, Methylidyne-[6-(7-methyl-2-o-tolyl-imidazo[1,2-a]pyridin-3-ylamino)-hexyl]-ammonium], 62%; to `Cc1ccn2c(NC(C)(C)CC(C)(C)C)c(-c3ccc(CO)o3)nc2c1` [Example 102, {5-[7-Methyl-3-(1,1,33-tetramethyl-butylamino)-imidazo[1,2-a]pyridin-2-yl]-furan-2-yl}-methanol], 59%.
On the same count and under the same terms, then `[C-]#[N+]CCCCCCNc1c(-c2ccc(-c3ccccc3Cl)o2)nc2cccc(C)n12` [Example 103, (6-{2-[5-(2-Chlorophenyl)-furan-2-yl]-5-methyl-imidazo[1,2-a]pyridin-3-ylamino)-hexyl)-methylidyne-ammonium], with 50%; and `C#[N+]CCCCCCNc1c(-c2ccccc2C)nc2cc(C)cc(C)n12` [Example 106, [6-(5,7-Dimethyl-2-o-tolyl-imidazo[1,2-a]-pyridin-3-ylamino)-hexyl]-methylidyne-ammonium], with 60%; and `[C-]#[N+]CCCCCCNc1c(-c2ccccn2)nc2cc(C)ccn12` [Example 107, Methylidyne-[6-(7-methyl-2-pyridin-2-yl-imidazo[1,2-a]pyridin-3-ylamino)-hexyl]-ammonium], with 50%.
Turning to `C#[N+]CCCCCCNc1c(-c2ccc(OC)c(OC)c2)nc2cc(C)ccn12` [Example 109, {6-[2-(3,4-Dimethoxy-phenyl)-7-methyl-imidazo[1,2-a]pyridin-3-ylamino]-hexyl}-methylidyne-ammonium], the “HTS-NOS assay: % inhibition (10 μM)” value is 51%.
`Cc1cc(C)n2c(NC3CCCCC3)c(-c3ccccn3)nc2c1` [Example 114, Cyclohexyl-(5,7-dimethyt-2-pyridin-2-yl-imidazo[1,2-a]pyridin-3-yl)-amine]: the “HTS-NOS assay: % inhibition (10 μM)” value is recorded as 53%.

Still in this assay, the particulars now being: read-out: HTS-NOS assay: % inhibition (10 μM).
By inhibition is commonly meant the relative decrease from the control value, in per cent. With `Cc1cc(C)n2c(Nc3c(C)cccc3C)c(-c3cccc(Cl)c3Cl)nc2c1` [Example 78, [2-(2,3-Dichlorophenyl)-5,7-dimethyl-imidazo[1,2-a]pyridin-3-yl]-(2,6-dimethyl-phenyl)-amine], the inhibition at 10 µM was 61%.
On to `COc1ccccc1-c1nc2cc(C)cc(C)n2c1Nc1c(C)cccc1C` [Example 79, (2,6-Dimethyl-phenyl)-[2-(2-methoxy-phenyl)-5,7-dimethyl-imidazo[1,2-a]pyridin-3-yl]-amine], for which the inhibition at 10 µM amounted to 66%.
Consider `Cc1ccn2c(NC(C)(C)CC(C)(C)C)c(-c3ccc(-c4ccccc4Cl)o3)nc2c1` [Example 80, {2-[5-(2-Chlorophenyl)-furan-2-yl]-7-methyl-imidazo[1,2-a]pyridin-3-yl}-(1,1,3,3-tetramethyl-butyl)-amine], for which the inhibition at 10 µM is 52%.
Same read-out and setting: to `Cc1ccn2c(NC(C)(C)CC(C)(C)C)c(-c3ccc(C(=O)O)o3)nc2c1` [Example 81, 5-[7-Methyl-3-(1,1,3,3-tetramethyl-butylamino)-imidazo[1,2-a]pyridin-2-yl]-furan-2-carboxylic acid] belongs 60%; to `COc1ccccc1-c1nc2c(C)cccn2c1NC1CCCCC1` [Example 82, Cyclohexyl-[2-(2-methoxy-phenyl)-8-methyl-imidazo[1,2-a]pyridin-3-yl]-amine], 62%.
Same read-out and setting: then `Cc1ccn2c(NC(C)(C)CC(C)(C)C)c(-c3cccc(O)c3)nc2c1` [Example 83, 3-[7-Methyl-3-(1,1,3,3-tetramethyl-butylamino)-imidazo[1,2-a]pyridin-2-yl]-phenol], with 60%; and `Cc1cc(C)n2c(NC(C)(C)CC(C)(C)C)c(-c3cccc(Cl)c3Cl)nc2c1` [Example 84, [2-(2,3-Dichlorophenyl)-5,7-dimethyl-imidazo[1,2-a]pyridin-3-yl]-(1,1,3,3-tetramethyl-butyl)-amine], with 54%.
Regarding `Cc1ccn2c(NC(C)(C)CC(C)(C)C)c(-c3ccc(Cl)cc3Cl)nc2c1` [Example 85, [2-(2,4-Dichlorophenyl)-7-methyl-imidazo[1,2-a]pyridin-3-yl]-(1,1,3,3-tetramethyl-butyl)-amine], the inhibition at 10 µM is 61%.
`Cc1ccn2c(NC(C)(C)CC(C)(C)C)c(-c3ccc(Br)o3)nc2c1` [Example 86, [2-(5-Bromofuran-2-yl)-7-methyl-imidazo[1,2-a]pyridin-3-yl]-(1,1,3,3-tetramethyl-butyl)-amine]: the inhibition at 10 µM worked out at 54%.
The same measure, in the same setting: then `Cc1cc(C)n2c(NC3CCCCC3)c(-c3ccc(C(=O)O)o3)nc2c1` [Example 87, 5-(3-Cyclohexylamino-5,7-dimethyl-imidazo[1,2-a]pyridin-2-yl)-furan-2-carboxylic acid], with 54%; and `Cc1cc(C)n2c(NC(C)(C)CC(C)(C)C)c(-c3ccc(Cl)cc3Cl)nc2c1` [Example 89, [2-(2,4-Dichlorophenyl)-5,7-dimethyl-imidazo[1,2-a]pyridin-3-yl]-(1,1,3,3-tetramethyl-butyl)-amine], with 68%; and `Cc1ccn2c(Nc3c(C)cccc3C)c(-c3cc4ccccc4o3)nc2c1` [Example 90, (2-benzofuran-2-yl-7-methyl-imidazo[1,2-a]-pyridin-3-yl)-(2,6-dimethyl-phenyl)-amine], with 53%.
Still for that read-out and setting: then `Cc1ccn2c(NC3CCCCC3)c(-c3ccc(C(=O)O)o3)nc2c1` [Example 91, 5-(3-Cyclohexylamino-7-methyl-imidazo[1,2-a]pyridin-2-yl)-furan-2-carboxylic acid], with 64%.
On the same count and under the same terms, then `Cc1ccn2c(NC(C)(C)C)c(C3CCCCC3)nc2c1` [Example 93, Tert-butyl-(2-cyclohexyl-7-methyl-imidazo[1,2-a]pyridin-3-yl)-amine], with 52%; and `Cc1ccn2c(NC(C)(C)C)c(C)nc2c1` [Example 94, Tert-butyl-(2,7-dimethyl-imidazo[1,2-a]-pyridin-3-yl)-amine], with 65%.
Take `Cc1ccc(-c2nc3cc(C)cc(C)n3c2NC(C)(C)CC(C)(C)C)cc1` [Example 95, (5,7-Dimethyl-2-p-tolyl-imidazo[1,2-a]-pyridin-3-yl)-(1,1,3,3-tetramethyl-butyl)-amine]: the inhibition at 10 µM came out at 70%.
Same read-out and setting: then `Cc1cccc(C)c1Nc1c(-c2cccc(Cl)c2Cl)nc2c(C)cccn12` [Example 96, [2-(2,3-Dichlorophenyl)-8-methyl-imidazo[1,2-a]pyridin-3-yl]-(2,6-dimethyl-phenyl)-amine], with 55%; and `Cc1ccn2c(NC(C)(C)CC(C)(C)C)c(-c3ccc(-c4cccc(Cl)c4)o3)nc2c1` [Example 98, {2-[5-(3-Chlorophenyl)-furan-2-yl]-7-methyl-imidazo[1,2-a]pyridin-3-yl}-(1,1,3,3-tetramethyl-butyl)-amine], with 62%; and `Cc1ccn2c(NC3CCCCC3)c(-c3ccc([N+](=O)[O-])o3)nc2c1` [Example 99, Cyclohexyl-[7-methyl-2-(5-nitro-furan-2-yl)-imidazo[1,2-a]pyridin-3-yl]-amine], with 66%.
Take `Cc1ccn2c(NC3CCCCC3)c(-c3ccccc3Br)nc2c1` [Example 100, [2-(2-Bromophenyl)-7-methyl-imidazo[1,2-a]pyridin-3-yl]-cyclohexyl-amine]: the inhibition at 10 µM was determined as 50%.
Same read-out and setting: then `COc1ccccc1-c1nc2cc(C)ccn2c1NC(C)(C)CC(C)(C)C` [Example 101, [2-(2-Methoxy-phenyl)-7-methyl-imidazo[1,2-a]pyridin-3-yl]-(1,1,3,3-tetramethyl-butyl)-amine], with 58%; and `Cc1cc(C)n2c(NC3CCCCC3)c(-c3ccc([N+](=O)[O-])o3)nc2c1` [Example 104, Cyclohexyl-[5,7-dimethyl-2-(5-nitro-furan-2-yl)-imidazo[1,2-a]pyridin-3-yl]-amine], with 63%; and `Cc1ccn2c(NC3CCCCC3)c(-c3cc(C)c(C)o3)nc2c1` [Example 105, Cyclohexyl-[2-(4,5-dimethyl-furan-2-yl)-7-methyl-imidazo[1,2-a]pyridin-3-yl]-amine], with 65%.
The same measure, in the same setting: then `COc1cccc(-c2nc3cc(C)cc(C)n3c2NC(C)(C)CC(C)(C)C)c1OC` [Example 108, (2-(2,3-Dimethoxy-phenyl)-5,7-dimethyl-imidazo[1,2-a]pyridin-3-yl]-(1,1,3,3-tetramethyl-butyl)-amine], with 73%; and `Cc1ccn2c(NC(C)(C)C)c(-c3ccc(C(=O)O)s3)nc2c1` [Example 110, 5-(3-Tert-butylamino-7-methyl-imidazo[1,2-a]pyridin-2-yl)-thiophene-2-carboxylic acid], with 61%; and `Cc1cccn2c(NC3CCCCC3)c(-c3ccncc3)nc12` [Example 111, Cyclohexyl-(8-methyl-2-pyridin-4-yl-imidazo[1,2-a]pyridin-3-yl)-amine], with 52%.
The same measure, in the same setting: then `Cc1ccc2nc(-c3cccc(Cl)c3Cl)c(NC(C)(C)CC(C)(C)C)n2c1` [Example 112, [2-(2,3-Dichloro-phenyl)-6-methyl-imidazo[1,2-a]pyridin-3-yl]-(1,1,3,3-tetramethyl-butyl)-amine], with 52%; and `CCCCNc1c(-c2ccc(C(=O)O)s2)nc2cnccn12` [Example 113, 5-(3-Butylamino-imidazo[1,2-a]pyrazin-2-yl)-thiophene-2-carboxylic acid], with 54%.
